Laboratory results from PubChem BioAssay AID256 (DTP/NCI, 2004).
Inconclusive results and toxic doses are left out. Rule for the calls: active = survival T/C of 150% or more; inactive = T/C below 125% in these data.

System: CD2F1 mice, L1210 leukemia ip, survival T/C
Assay: NCI In Vivo Anticancer Drug Screen. Data for tumor model L1210 Leukemia (intraperitoneal) in CD2F1 (CDF1) mice
Conditions: higher = longer survival
Summary of the method: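 Antitumor effect is scored in animals hosting a serially transplanted tumor. Values compare compound-dosed animals against vehicle-only controls as a simple quotient.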

[1] = endpoint: mean survival time, dose: 100.0 mg/kg/injection, schedule: Q01DX001 (ip), vehicle: saline with Tween-80
[2] = endpoint: mean survival time, dose: 200.0 mg/kg/injection, schedule: Q01DX001 (ip), vehicle: saline with Tween-80
[3] = endpoint: mean survival time, dose: 400.0 mg/kg/injection, schedule: Q01DX001 (ip), vehicle: saline with Tween-80
[4] = endpoint: mean survival time, dose: 100.0 mg/kg/injection, schedule: Q01DX001 (ip), vehicle: saline
[5] = endpoint: mean survival time, dose: 200.0 mg/kg/injection, schedule: Q01DX001 (ip), vehicle: saline
[6] = endpoint: mean survival time, dose: 100.0 mg/kg/injection, schedule: Q01DX009 (ip), vehicle: saline with Tween-80
[7] = endpoint: mean survival time, dose: 100.0 mg/kg/injection, schedule: Q04DX003 (ip), vehicle: saline with Tween-80
[8] = endpoint: mean survival time, dose: 200.0 mg/kg/injection, schedule: Q04DX003 (ip), vehicle: saline with Tween-80
[9] = endpoint: mean survival time, dose: 400.0 mg/kg/injection, schedule: Q01DX009 (ip), vehicle: saline with Tween-80
[10] = endpoint: mean survival time, dose: 400.0 mg/kg/injection, schedule: Q04DX003 (ip), vehicle: saline with Tween-80
[11] = endpoint: mean survival time, dose: 25.0 mg/kg/injection, schedule: Q04DX002 (ip), vehicle: saline with Tween-80
[12] = endpoint: mean survival time, dose: 50.0 mg/kg/injection, schedule: Q04DX002 (ip), vehicle: saline with Tween-80
[13] = endpoint: mean survival time, dose: 100.0 mg/kg/injection, schedule: Q04DX002 (ip), vehicle: saline with Tween-80
[14] = endpoint: mean survival time, dose: 200.0 mg/kg/injection, schedule: Q04DX002 (ip), vehicle: saline with Tween-80
[15] = endpoint: mean survival time, dose: 50.0 mg/kg/injection, schedule: Q01DX009 (ip), vehicle: saline with Tween-80
[16] = endpoint: mean survival time, dose: 200.0 mg/kg/injection, schedule: Q01DX009 (ip), vehicle: saline with Tween-80
[17] = endpoint: mean survival time, dose: 400.0 mg/kg/injection, schedule: Q01DX001 (ip), vehicle: saline

Measured: T/C

OC1CCc2c(Cl)sc(Cl)c21 (stereo not given)
inactive: endpoint: mean survival time, dose: 25.0 mg/kg/injection, schedule: Q01DX001 (ip), vehicle: saline with Tween-80 92 % of control | endpoint: mean survival time, dose: 50.0 mg/kg/injection, schedule: Q01DX001 (ip), vehicle: saline with Tween-80 98 % of control | [1] 98 % of control

Nc1cc(C(Br)(Br)Br)nc2ccccc12
inactive: endpoint: mean survival time, dose: 75.0 mg/kg/injection, schedule: Q01DX001 (ip), vehicle: saline 103 % of control

NCCS(=O)(=O)O
inactive: endpoint: mean survival time, dose: 100.0 mg/kg/injection, schedule: Q01DX009 (ip), vehicle: water 95 % of control | endpoint: mean survival time, dose: 200.0 mg/kg/injection, schedule: Q01DX001 (ip), vehicle: water 98 % of control | endpoint: mean survival time, dose: 200.0 mg/kg/injection, schedule: Q01DX009 (ip), vehicle: water 86 % of control | endpoint: mean survival time, dose: 400.0 mg/kg/injection, schedule: Q01DX001 (ip), vehicle: water 96 % of control | endpoint: mean survival time, dose: 400.0 mg/kg/injection, schedule: Q01DX009 (ip), vehicle: water 92 % of control | endpoint: mean survival time, dose: 800.0 mg/kg/injection, schedule: Q01DX001 (ip), vehicle: water 98 % of control | endpoint: mean survival time, dose: 800.0 mg/kg/injection, schedule: Q01DX009 (ip), vehicle: water 92 % of control | endpoint: mean survival time, dose: 1600.0 mg/kg/injection, schedule: Q01DX001 (ip), vehicle: water 107 % of control

CP(=O)(c1ccccc1)c1ccccc1
inactive: [1] 100 % of control | [2] 103 % of control | [3] 98 % of control

CN1CCN(CCCN2C(=O)C3CC=CCC3C2=O)CC1 (stereo not given)
inactive: [4] 102 % of control | [5] 93 % of control

Nc1ccc(NC(=O)Nc2ccc(N)cc2)cc1
inactive: endpoint: mean survival time, dose: 3.0 mg/kg/injection, schedule: Q01DX009 (ip), vehicle: saline sonified 96 % of control | endpoint: mean survival time, dose: 6.0 mg/kg/injection, schedule: Q01DX009 (ip), vehicle: saline sonified 94 % of control | endpoint: mean survival time, dose: 12.0 mg/kg/injection, schedule: Q01DX009 (ip), vehicle: saline sonified 96 % of control | endpoint: mean survival time, dose: 12.5 mg/kg/injection, schedule: Q04DX003 (ip), vehicle: saline with Tween-80 104 % of control

COc1ccc(-c2[nH]c(=S)[nH]c(=O)c2CCO)cc1
inactive: [6] 93 % of control | [7] 90 % of control | [8] 88 % of control | [9] 92 % of control | [10] 95 % of control

CCOP1(=S)Nc2cc(C)c(C)cc2N1
inactive: [11] 98 % of control | [12] 87 % of control | [13] 87 % of control | [14] 87 % of control

COc1nc(NC(C)C)nc(NC(C)C)n1
inactive: [15] 97 % of control | [6] 107 % of control | endpoint: mean survival time, dose: 100.0 mg/kg/injection, schedule: Q04DX003 (ip), vehicle: saline 95 % of control | [16] 105 % of control | endpoint: mean survival time, dose: 200.0 mg/kg/injection, schedule: Q04DX003 (ip), vehicle: saline 100 % of control

Cc1cccc(Cl)c1NC(=O)/C=C/c1ccccc1
inactive: [13] 87 % of control | [14] 94 % of control | endpoint: mean survival time, dose: 400.0 mg/kg/injection, schedule: Q04DX002 (ip), vehicle: saline with Tween-80 105 % of control

COc1cc(Cl)ccc1NC(=O)OCCOc1ccc(Cl)cc1
inactive: [15] 91 % of control | [6] 88 % of control | [16] 91 % of control

CCC(C)CCCOC(=O)c1c(Cl)c(Cl)c(Cl)c(Cl)c1C(=O)O (stereo not given)
inactive: [4] 106 % of control | [5] 112 % of control | [17] 102 % of control

CN(C)N=Nc1cccc(C(N)=O)c1
inactive: endpoint: mean survival time, dose: 5.0 mg/kg/injection, schedule: Q01DX009 (ip), vehicle: Klucel (hydroxypropylcellulose) (HPC) 112 % of control | endpoint: mean survival time, dose: 10.0 mg/kg/injection, schedule: Q01DX009 (ip), vehicle: Klucel (hydroxypropylcellulose) (HPC) 113 % of control | endpoint: mean survival time, dose: 20.0 mg/kg/injection, schedule: Q01DX009 (ip), vehicle: Klucel (hydroxypropylcellulose) (HPC) 117 % of control | endpoint: mean survival time, dose: 80.0 mg/kg/injection, schedule: Q01DX009 (ip), vehicle: Klucel (hydroxypropylcellulose) (HPC) 113 % of control | endpoint: mean survival time, dose: 108.0 mg/kg/injection, schedule: Q01DX009 (ip), vehicle: Klucel (hydroxypropylcellulose) (HPC) 93 % of control

O=C(O)CCCCCSc1nn(C2OC(CO)C(O)C2O)c(=O)[nH]c1=O (stereo not given)
inactive: endpoint: mean survival time, dose: 12.5 mg/kg/injection, schedule: Q01DX005 (ip), vehicle: distilled water + Tween-80 112 % of control | endpoint: mean survival time, dose: 25.0 mg/kg/injection, schedule: Q01DX005 (ip), vehicle: distilled water + Tween-80 104 % of control | endpoint: mean survival time, dose: 50.0 mg/kg/injection, schedule: Q01DX005 (ip), vehicle: distilled water + Tween-80 104 % of control | endpoint: mean survival time, dose: 100.0 mg/kg/injection, schedule: Q01DX005 (ip), vehicle: distilled water + Tween-80 104 % of control | endpoint: mean survival time, dose: 200.0 mg/kg/injection, schedule: Q01DX005 (ip), vehicle: distilled water + Tween-80 104 % of control

O=C1OC(c2ccc([N+](=O)[O-])cc2)=N/C1=C\c1ccc2c(c1)OCO2
inactive: [11] 95 % of control | [12] 98 % of control | [13] 91 % of control

CC1=CCCC2C1(C)CCC(C)C2(C)Cc1cc(O)ccc1O (stereo not given)
inactive: endpoint: median survival time, dose: 6.25 mg/kg/injection, schedule: Q01DX005 (ip), vehicle: Klucel (hydroxypropylcellulose) (HPC) 107 % of control | endpoint: median survival time, dose: 12.5 mg/kg/injection, schedule: Q01DX005 (ip), vehicle: Klucel (hydroxypropylcellulose) (HPC) 103 % of control | endpoint: median survival time, dose: 25.0 mg/kg/injection, schedule: Q01DX005 (ip), vehicle: Klucel (hydroxypropylcellulose) (HPC) 98 % of control | endpoint: median survival time, dose: 50.0 mg/kg/injection, schedule: Q01DX005 (ip), vehicle: Klucel (hydroxypropylcellulose) (HPC) 102 % of control | endpoint: median survival time, dose: 100.0 mg/kg/injection, schedule: Q01DX005 (ip), vehicle: Klucel (hydroxypropylcellulose) (HPC) 97 % of control

CCOC(=O)c1c(NC(C)=O)sc2c1CCCC2
inactive: [7] 97 % of control | [8] 106 % of control

N#C/C=C1\NC(=O)CS1
inactive: [6] 114 % of control | [7] 96 % of control | [16] 101 % of control | [8] 100 % of control | [10] 102 % of control

Cn1c(=O)[nH]c2c(nc(-c3ccc(Cl)cc3)n2CCc2ccccc2)c1=O
inactive: endpoint: mean survival time, dose: 7.8 mg/kg/injection, schedule: Q01DX005 (ip), vehicle: other 100 % of control | endpoint: mean survival time, dose: 15.6 mg/kg/injection, schedule: Q01DX005 (ip), vehicle: other 95 % of control | endpoint: mean survival time, dose: 31.3 mg/kg/injection, schedule: Q01DX005 (ip), vehicle: other 95 % of control | endpoint: mean survival time, dose: 62.5 mg/kg/injection, schedule: Q01DX005 (ip), vehicle: other 95 % of control | endpoint: mean survival time, dose: 125.0 mg/kg/injection, schedule: Q01DX005 (ip), vehicle: other 95 % of control

c1ccc(NCc2nc3ccccc3[nH]2)cc1
inactive: endpoint: mean survival time, dose: 12.5 mg/kg/injection, schedule: Q01DX005 (ip), vehicle: water 101 % of control | endpoint: mean survival time, dose: 25.0 mg/kg/injection, schedule: Q01DX005 (ip), vehicle: water 102 % of control

COC(=O)c1cc(C)c(C)cc1NC1OC(CO)C(O)C1O (stereo not given)
inactive: [4] 91 % of control | [5] 89 % of control | [17] 86 % of control

Cc1c([N+](=O)[O-])cc(C(C)(C)C)c(OS(C)(=O)=O)c1[N+](=O)[O-]
inactive: [13] 105 % of control

CC(Oc1ccccc1)C(=O)c1ccccc1 (stereo not given)
inactive: [6] 93 % of control | [7] 97 % of control | [16] 93 % of control | [8] 100 % of control | [9] 96 % of control | [10] 90 % of control

CCOC(=O)CCC(NC(=O)c1ccc(N(C=O)CCOC=O)cc1)C(=O)OCC (stereo not given)
inactive: [7] 97 % of control | [8] 96 % of control | [10] 96 % of control

Cc1ccc(NC(=O)Oc2ccc(F)cc2Cl)cc1NC(=O)Oc1ccc(F)cc1Cl
inactive: [1] 103 % of control | [2] 101 % of control | [3] 95 % of control

COC1C(O)=C2C(=O)OC(C)(O)/C=C/C=C\C=C/C=C/C(c3ccccc3)NC(=O)/C=C/C=C/C=C/C=C/C2(C)C1O (stereo not given)
inactive: endpoint: mean survival time, dose: 6.25 mg/kg/injection, schedule: Q01DX009 (ip), vehicle: Klucel (hydroxypropylcellulose) (HPC) 106 % of control | endpoint: mean survival time, dose: 12.5 mg/kg/injection, schedule: Q01DX009 (ip), vehicle: Klucel (hydroxypropylcellulose) (HPC) 95 % of control | endpoint: mean survival time, dose: 25.0 mg/kg/injection, schedule: Q01DX009 (ip), vehicle: Klucel (hydroxypropylcellulose) (HPC) 103 % of control
